The supplement of paper PMC12819154, “High-throughput peptide-centric local stability assay extends protein–ligand identification to membrane proteins, tissues and bacteria” (Nature Structural & Molecular Biology, 2025)

Key:
Assay in all cases: pEC50 of peptide local stability change
UniProt P25539 = conditions: peptide sequence: HVGPDVCLHLVGA; direction: stabilized; replicate design: treated separately
Method in brief: (§1)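 Each tabulated entry is a mean pEC50 taken across replicates. Four 50 µl replicates of desalted, MgCl2-supplemented E. coli K-12 BW25113 lysate (1.2 mg ml^−1) were exposed to ATP at seven doses from 10 µM to 10 mM, or to water, for 30 min at 25 °C, then trypsin-digested for 4 min at 22 °C and analysed by DIA LC–MS/MS. Treated/control peptide ratios from every replicate were fitted to a four-parameter log-logistic model, and an entry was kept only if fit R^2 exceeded 0.9 in at least three replicates and the coefficient of variation of the estimate was at most 0.25.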

UniProt P0A9P6 = conditions: peptide sequence: DVLGMAQTGSGK; direction: stabilized; replicate design: treated separately
Method in brief: as §1

UniProt P27296 = conditions: peptide sequence: AQIAAWYK; direction: stabilized; replicate design: treated separately
Method in brief: as §1

UniProt P07862 = conditions: peptide sequence: AWTTLGCK; direction: stabilized; replicate design: treated separately
Method in brief: as §1

UniProt P28903 = conditions: peptide sequence: KGDPNYDIK; direction: stabilized; replicate design: treated separately
Method in brief: as §1

UniProt P39177 = conditions: peptide sequence: NPSISTHLLGSNASSVIR; direction: stabilized; replicate design: treated separately
Method in brief: as §1

UniProt P07604 = conditions: peptide sequence: YAWPGNVR; direction: stabilized; replicate design: treated separately
Method in brief: as §1

UniProt P31548 = conditions: peptide sequence: LPGELSGGQR; direction: stabilized; replicate design: treated separately
Method in brief: as §1

UniProt P27833 = conditions: peptide sequence: SALINFLK; direction: stabilized; replicate design: treated separately
Method in brief: as §1

UniProt P00582 = conditions: peptide sequence: LYLPDIK; direction: stabilized; replicate design: treated separately
Method in brief: as §1

UniProt P37440 = conditions: peptide sequence: CTAVVADVR; direction: stabilized; replicate design: treated separately
Method in brief: as §1

UniProt P21693 = conditions: peptide sequence: DSLQHAPHIIVATPGR; direction: stabilized; replicate design: treated separately
Method in brief: as §1

UniProt P0AEC3 = conditions: peptide sequence: DSHGGKPATGTGIGLAVSR; direction: stabilized; replicate design: treated separately
Method in brief: as §1

UniProt P11664 = conditions: peptide sequence: GAPETFDVAK; direction: stabilized; replicate design: treated separately
Method in brief: as §1

UniProt P31663 = conditions: peptide sequence: NGYLTAEQR; direction: stabilized; replicate design: treated separately
Method in brief: as §1

UniProt P37647 = conditions: peptide sequence: GHLTASTVIQYR; direction: stabilized; replicate design: treated separately
Method in brief: as §1

UniProt P36566 = conditions: peptide sequence: TLSPDYPR; direction: stabilized; replicate design: treated separately
Method in brief: as §1

UniProt P36938 = conditions: peptide sequence: TLVSSAMIDR; direction: stabilized; replicate design: treated separately
Method in brief: as §1

UniProt P25888 = conditions: peptide sequence: DLMASAQTGTGK; direction: stabilized; replicate design: treated separately
Method in brief: as §1

UniProt P46889 = conditions: peptide sequence: DIAGEPVVADLAK; direction: stabilized; replicate design: treated separately
Method in brief: as §1

UniProt P15640 = conditions: peptide sequence: VIEFNCR; direction: stabilized; replicate design: treated separately
Method in brief: as §1

UniProt P76422 = conditions: peptide sequence: GGHLDDEQSPDWLFTR; direction: stabilized; replicate design: treated separately
Method in brief: as §1

UniProt P40719 = conditions: peptide sequence: RFTSDAAHELR; direction: stabilized; replicate design: treated separately
Method in brief: as §1

UniProt P39359 = conditions: peptide sequence: EVADFLINK; direction: stabilized; replicate design: treated separately
Method in brief: as §1

UniProt P00363 = conditions: peptide sequence: LAGEQATER; direction: stabilized; replicate design: treated separately
Method in brief: as §1

UniProt P37744 = conditions: peptide sequence: LSVAMMGR; direction: stabilized; replicate design: treated separately
Method in brief: as §1

UniProt P17888 = conditions: peptide sequence: QQQALAALR; direction: stabilized; replicate design: treated separately
Method in brief: as §1

UniProt P32143 = conditions: peptide sequence: AGIPDCDQTR; direction: stabilized; replicate design: treated separately
Method in brief: as §1

UniProt P37908 = conditions: peptide sequence: QLSHSPHGR; direction: stabilized; replicate design: treated separately
Method in brief: as §1

UniProt P43329 = conditions: peptide sequence: HTEILPLYAR; direction: stabilized; replicate design: treated separately
Method in brief: as §1

UniProt P77485 = conditions: peptide sequence: GTVAVTSDAR; direction: stabilized; replicate design: treated separately
Method in brief: as §1

Chain of UniProt P27296 (P27296 whole entry): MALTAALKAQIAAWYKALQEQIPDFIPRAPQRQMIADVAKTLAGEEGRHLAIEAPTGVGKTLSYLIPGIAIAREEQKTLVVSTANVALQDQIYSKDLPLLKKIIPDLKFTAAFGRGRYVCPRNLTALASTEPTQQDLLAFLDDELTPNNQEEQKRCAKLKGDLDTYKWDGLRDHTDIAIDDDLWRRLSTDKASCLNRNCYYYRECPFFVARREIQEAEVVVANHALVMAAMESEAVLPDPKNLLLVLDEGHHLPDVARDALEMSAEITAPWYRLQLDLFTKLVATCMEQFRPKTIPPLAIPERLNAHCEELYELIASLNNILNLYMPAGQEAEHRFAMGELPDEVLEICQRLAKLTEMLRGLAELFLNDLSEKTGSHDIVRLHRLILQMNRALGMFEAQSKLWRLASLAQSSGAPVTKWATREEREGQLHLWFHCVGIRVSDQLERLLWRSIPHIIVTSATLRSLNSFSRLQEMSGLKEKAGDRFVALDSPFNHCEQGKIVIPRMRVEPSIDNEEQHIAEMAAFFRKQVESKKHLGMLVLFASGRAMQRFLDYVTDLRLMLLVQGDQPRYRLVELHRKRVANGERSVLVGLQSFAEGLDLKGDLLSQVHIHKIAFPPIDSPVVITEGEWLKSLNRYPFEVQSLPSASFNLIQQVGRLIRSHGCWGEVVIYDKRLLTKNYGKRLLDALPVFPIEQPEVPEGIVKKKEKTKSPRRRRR
Chain of UniProt P25539 (P25539 whole entry): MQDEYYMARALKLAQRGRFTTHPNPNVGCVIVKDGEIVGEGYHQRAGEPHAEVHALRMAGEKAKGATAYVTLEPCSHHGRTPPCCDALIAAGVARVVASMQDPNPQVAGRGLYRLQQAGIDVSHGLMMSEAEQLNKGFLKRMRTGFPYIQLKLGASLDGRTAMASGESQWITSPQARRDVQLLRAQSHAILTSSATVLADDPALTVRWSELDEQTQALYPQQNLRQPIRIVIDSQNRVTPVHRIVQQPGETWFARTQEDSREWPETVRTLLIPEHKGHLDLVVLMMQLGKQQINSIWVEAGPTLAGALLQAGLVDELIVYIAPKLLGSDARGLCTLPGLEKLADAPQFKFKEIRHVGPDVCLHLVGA
Chain of UniProt P31663 (P31663 whole entry): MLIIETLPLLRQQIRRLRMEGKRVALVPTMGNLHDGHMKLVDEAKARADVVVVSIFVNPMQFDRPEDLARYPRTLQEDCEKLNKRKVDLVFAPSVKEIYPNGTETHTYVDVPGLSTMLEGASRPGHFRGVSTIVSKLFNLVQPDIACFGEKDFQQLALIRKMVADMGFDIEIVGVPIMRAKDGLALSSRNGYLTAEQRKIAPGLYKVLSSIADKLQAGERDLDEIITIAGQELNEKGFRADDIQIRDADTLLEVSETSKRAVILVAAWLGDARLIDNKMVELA
Chain of UniProt P36938 (P36938 whole entry): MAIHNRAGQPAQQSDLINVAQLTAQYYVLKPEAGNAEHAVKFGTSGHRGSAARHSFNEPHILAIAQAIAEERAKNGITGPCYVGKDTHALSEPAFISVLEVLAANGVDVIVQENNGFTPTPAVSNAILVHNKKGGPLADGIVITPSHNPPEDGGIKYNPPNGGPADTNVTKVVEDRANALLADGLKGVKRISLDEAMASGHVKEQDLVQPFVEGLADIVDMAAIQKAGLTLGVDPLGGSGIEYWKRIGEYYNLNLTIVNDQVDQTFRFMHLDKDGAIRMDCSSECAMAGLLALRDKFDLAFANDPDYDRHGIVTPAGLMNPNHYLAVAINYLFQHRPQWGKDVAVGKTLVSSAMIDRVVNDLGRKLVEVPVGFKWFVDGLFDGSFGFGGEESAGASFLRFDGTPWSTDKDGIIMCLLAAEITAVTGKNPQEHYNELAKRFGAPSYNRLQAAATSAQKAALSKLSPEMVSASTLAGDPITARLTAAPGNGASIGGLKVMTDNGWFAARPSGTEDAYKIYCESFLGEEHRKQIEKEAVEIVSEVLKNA
Chain of UniProt P39177 (P39177 whole entry): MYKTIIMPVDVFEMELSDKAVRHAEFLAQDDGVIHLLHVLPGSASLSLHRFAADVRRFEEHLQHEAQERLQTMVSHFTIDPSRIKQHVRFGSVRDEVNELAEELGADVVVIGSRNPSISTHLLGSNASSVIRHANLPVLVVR
Chain of UniProt P46889 (P46889 whole entry): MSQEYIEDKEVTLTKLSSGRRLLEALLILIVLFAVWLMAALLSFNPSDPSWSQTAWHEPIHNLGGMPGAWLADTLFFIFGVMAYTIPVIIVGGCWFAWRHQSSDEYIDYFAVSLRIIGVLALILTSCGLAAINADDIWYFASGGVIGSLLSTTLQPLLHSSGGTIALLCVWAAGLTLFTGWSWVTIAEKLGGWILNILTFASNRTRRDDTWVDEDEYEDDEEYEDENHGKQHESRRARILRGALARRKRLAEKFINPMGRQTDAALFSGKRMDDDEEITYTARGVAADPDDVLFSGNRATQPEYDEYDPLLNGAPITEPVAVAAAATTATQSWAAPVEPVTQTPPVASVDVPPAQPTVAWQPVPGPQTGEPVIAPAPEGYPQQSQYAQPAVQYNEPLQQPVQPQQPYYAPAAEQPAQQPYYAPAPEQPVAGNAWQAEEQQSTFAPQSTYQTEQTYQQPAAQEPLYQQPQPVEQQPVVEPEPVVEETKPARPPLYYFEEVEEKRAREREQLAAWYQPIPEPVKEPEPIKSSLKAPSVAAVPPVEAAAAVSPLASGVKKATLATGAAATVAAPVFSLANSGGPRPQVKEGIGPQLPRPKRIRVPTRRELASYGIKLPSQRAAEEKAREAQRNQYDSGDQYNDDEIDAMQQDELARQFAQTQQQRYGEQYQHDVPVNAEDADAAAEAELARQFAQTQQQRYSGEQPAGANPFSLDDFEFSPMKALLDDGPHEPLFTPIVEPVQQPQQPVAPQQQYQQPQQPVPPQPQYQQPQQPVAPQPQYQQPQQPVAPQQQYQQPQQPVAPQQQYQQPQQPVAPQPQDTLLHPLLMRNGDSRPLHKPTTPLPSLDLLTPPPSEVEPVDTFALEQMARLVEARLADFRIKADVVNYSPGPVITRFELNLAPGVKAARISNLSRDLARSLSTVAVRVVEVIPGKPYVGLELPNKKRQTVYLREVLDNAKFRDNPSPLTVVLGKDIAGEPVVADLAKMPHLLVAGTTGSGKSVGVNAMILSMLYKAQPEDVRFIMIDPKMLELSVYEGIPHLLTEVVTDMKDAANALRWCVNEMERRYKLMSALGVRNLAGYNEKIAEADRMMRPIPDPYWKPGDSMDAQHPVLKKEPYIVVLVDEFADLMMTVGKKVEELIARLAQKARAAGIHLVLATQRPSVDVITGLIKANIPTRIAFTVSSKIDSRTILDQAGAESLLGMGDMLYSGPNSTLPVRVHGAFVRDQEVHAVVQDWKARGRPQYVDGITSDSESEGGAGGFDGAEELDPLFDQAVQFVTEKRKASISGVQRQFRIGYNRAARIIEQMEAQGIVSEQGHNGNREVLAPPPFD
Chain of UniProt P76422 (P76422 whole entry): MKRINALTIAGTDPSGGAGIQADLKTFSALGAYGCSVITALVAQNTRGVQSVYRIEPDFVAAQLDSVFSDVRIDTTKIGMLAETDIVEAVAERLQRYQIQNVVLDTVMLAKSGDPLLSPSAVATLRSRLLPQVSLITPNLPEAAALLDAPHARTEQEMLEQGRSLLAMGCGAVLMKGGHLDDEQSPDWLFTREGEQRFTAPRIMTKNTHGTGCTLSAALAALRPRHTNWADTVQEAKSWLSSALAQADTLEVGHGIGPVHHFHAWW
Chain of UniProt P0AEC3 (P0AEC3 whole entry): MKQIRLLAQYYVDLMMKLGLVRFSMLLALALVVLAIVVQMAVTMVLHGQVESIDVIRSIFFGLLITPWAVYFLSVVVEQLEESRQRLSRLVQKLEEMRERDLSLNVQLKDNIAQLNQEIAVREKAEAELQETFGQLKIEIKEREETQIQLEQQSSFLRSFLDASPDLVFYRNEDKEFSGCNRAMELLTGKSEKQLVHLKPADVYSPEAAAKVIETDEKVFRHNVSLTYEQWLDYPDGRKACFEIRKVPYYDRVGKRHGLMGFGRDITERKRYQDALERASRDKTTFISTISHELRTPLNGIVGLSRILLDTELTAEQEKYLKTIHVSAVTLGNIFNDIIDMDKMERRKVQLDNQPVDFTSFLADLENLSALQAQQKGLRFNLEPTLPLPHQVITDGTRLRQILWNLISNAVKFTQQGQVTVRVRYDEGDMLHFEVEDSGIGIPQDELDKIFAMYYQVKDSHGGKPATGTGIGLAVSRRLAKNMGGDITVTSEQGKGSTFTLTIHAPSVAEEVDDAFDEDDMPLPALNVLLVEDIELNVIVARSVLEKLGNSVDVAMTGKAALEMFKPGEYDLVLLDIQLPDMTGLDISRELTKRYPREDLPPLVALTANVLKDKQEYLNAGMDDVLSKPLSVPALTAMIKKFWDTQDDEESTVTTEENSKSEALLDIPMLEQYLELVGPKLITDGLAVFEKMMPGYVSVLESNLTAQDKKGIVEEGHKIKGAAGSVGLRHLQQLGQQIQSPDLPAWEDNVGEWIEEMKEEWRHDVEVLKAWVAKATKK
Chain of UniProt P07604 (P07604 whole entry): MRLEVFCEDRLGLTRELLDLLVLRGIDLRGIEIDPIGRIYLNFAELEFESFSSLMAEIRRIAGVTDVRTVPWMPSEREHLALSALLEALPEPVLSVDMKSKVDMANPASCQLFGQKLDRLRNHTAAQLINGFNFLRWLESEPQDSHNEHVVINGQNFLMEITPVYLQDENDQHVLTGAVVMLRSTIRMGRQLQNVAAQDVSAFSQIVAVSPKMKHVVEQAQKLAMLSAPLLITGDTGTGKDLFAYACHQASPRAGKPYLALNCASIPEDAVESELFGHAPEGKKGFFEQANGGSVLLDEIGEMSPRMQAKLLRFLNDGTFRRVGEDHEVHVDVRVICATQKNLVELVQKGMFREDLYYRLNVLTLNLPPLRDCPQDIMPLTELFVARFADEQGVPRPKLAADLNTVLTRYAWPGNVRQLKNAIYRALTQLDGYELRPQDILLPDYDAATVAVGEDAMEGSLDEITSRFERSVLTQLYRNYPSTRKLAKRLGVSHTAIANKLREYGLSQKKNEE

Nc1ncnc2c1ncn2[C@@H]1O[C@H](COP(=O)(O)OP(=O)(O)OP(=O)(O)O)[C@@H](O)[C@H]1O [adenosine 5'-triphosphate]
Conditions	pEC50 of peptide local stability change
UniProt P0A9P6	3.67
UniProt P0AEC3	2.99
UniProt P00363	2.48
UniProt P00582	3.5
UniProt P07604	4.06
UniProt P07862	3.66
UniProt P11664	3.03
UniProt P15640	3.7
UniProt P17888	3.81
UniProt P21693	3.65
UniProt P25539	2.74
UniProt P25888	3.76
UniProt P27296	3.36
UniProt P27833	2.89
UniProt P28903	2.76
UniProt P31548	3.79
UniProt P31663	4.25
UniProt P32143	3.39
UniProt P36566	2.46
UniProt P36938	2.48
UniProt P37440	2.72
UniProt P37647	3.1
UniProt P37744	3.22
UniProt P37908	2.73
UniProt P39177	3.26
UniProt P39359	3.49
UniProt P40719	3.59
UniProt P43329	3.11
UniProt P46889	2.99
UniProt P76422	3.76
UniProt P77485	2.24
